Results on 11 compounds are retold here after US5324747A, “N-substituted anilines, inhibitors of phospholipases A2” (Hoffmann-La Roche Inc., priority 1992, dated 1994).

Test [1] concerns Naja naja snake venom PLA2 (SV-PLA2). In words: Assay for inhibition of snake venom PLA2 (SV-PLA2) in vitro. In kind it is biochemical. Conditions: read-out: Inhib of SV-PLA2 IC50. The procedure: ASSAY FOR INHIBITION OF SNAKE VENOM PLA2 (SV-PLA2) IN VITRO
Several representative compounds of the invention were also tested as inhibitors of Naja naja snake venom PLA2 (SV-PLA2). The assay employed in this study was the spectrophotometric method described by: C. Vigo, G. P. Lewis and P. J. Piper in Biochemical Pharmacology, 29:623-627 (1983), which was modified as described by: A. F. Welton, L. D. Tobias, C. Fiedler-Nagy, W. Anderson, W. Hope, K. Meyers and J. W. Coffey in "Plant Flavonoids in Biology and Medicine: Biochemical, Pharmacological and Structure-Activity Relationships", p 231-242, (1986) Alan R. Liss, Inc. The PLA2 paw edema model, (data in Table I) is initiated by injection of SV-PLA2.

A further test has as its target T1, HSF-PLA2 (Homo sapiens, UniProt P14555).
T1 construct: extracellular enzyme obtained from human synovial fluid (HSF-PLA2); from tissue; host or cells: pooled human synovial fluid, added at 0.1% (v/v)
T1 sequence (P14555 21-144): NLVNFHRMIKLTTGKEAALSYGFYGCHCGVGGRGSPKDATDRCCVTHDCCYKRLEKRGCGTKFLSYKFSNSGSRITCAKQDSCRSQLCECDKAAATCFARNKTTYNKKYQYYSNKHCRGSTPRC
In words: Assay for Inhibition of HSF-PLA2 In Vitro. Particulars: for pIC50: read-out: Inhib of HSF-PLA2 IC50. The class given is biochemical. In outline:
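Extracellular PLA2 isolated from human synovial fluid, incubated 30 min at 37 °C with 14C-labelled phospholipid substrate in duplicate. Lipids were chloroform-extracted, and released 14C-oleic acid was separated from substrate by silica TLC; a no-enzyme control was run in each experiment.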

Test [2] has as its system Acetic Acid-Induced Colitis in Rats. In words: Acetic Acid-Induced Colitis in Rats. The class given is in vivo, rats (Sprague-Dawley). An excerpt: Acetic Acid-Induced Colitis in Rats The rat acetic acid-induced colitis bioassay has been described by J. E. Krawisz, et al. in Amer. J. Proc. Gastro. Col. Rec. Surg. 31: 11-18 (1980), and by P. Sharon and W. F. Stenson in Gastroenterology 88: 55-63 (1985) and 86:453-460 (1984). Acetic acid-induced colitis is characterized by the movement of inflammatory cells into the colon, with the number of such cells in the mucosa being measured by the activity of myeloperoxidase, a marker enzyme for these cells. Positive desirable activity is indicated by a reduction in the high levels of myeloperoxidase caused by acetic acid. […] The animals were administered a second dose of the test compound in the same amount about 16 hours later. Then 24 hours after the acetic acid treatment, the animals were sacrificed. The colonic mucosa was surgically removed and homogenized in an aqueous buffer at pH 6 with a Tissumizer or similar device and myeloperoxidase was measured in the homogenate using o-phenylenediamine as a cromagen, as described by […] and A. Bartlett in "The Enzyme Linked Immunosorbent Assay (ELISA)", Zoological Soc., London, 1979, pages 29-30. Control animals were pretreated with the vehicle and saline in place of acetic acid.

For a further test, the system named is PLA2 Rat Paw Edema. In words: Phospholipase A2 Rat Paw Edema. Conditions: for inhibition in vivo at 30 mg/kg: Rattus norvegicus, 2 hr, read-out: % Inhib of PLA2 Rat Paw Edema 2 hr (30 mg/kg). The class given is in vivo, Lewis rats. In outline: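 Lewis rats (~200 g, n=7) dosed i.p. (in DMSO) or orally (in Labrafil M-1944CS) 1 h before subplantar injection of 5 ug Naja naja PLA2 into right hind paw. Paw volume by plethysmometry at 0.5, 2 and 4 hr minus baseline; % change versus vehicle, Student's t-test.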

Test [3] deals with Croton Oil Mouse Ear Edema. In words: Croton Oil Mouse Ear Edema Test. In kind it is in vivo, CD-1 mice. Particulars: topical, coapplied, 6 hours.
The test system of test [4] is adjuvant arthritis model in rats. In words: Established Adjuvant Arthritis Test. In kind it is in vivo. The procedure: Established Adjuvant Arthritis Test
Representative compounds of the invention were tested in the standard adjuvant arthritis model in rats, induced by Freunds complete adjuvant, as described by C. E. Brinckerhoff, J. W. Coffey and A. C. Sullivan, Science, 221, p. 756-758 (1983).

The test system of test [5] is rat carrageenan-induced paw edema. In words: Rat Carrageenan Paw Edema. Particulars: 2 h; for inhibition in vivo at 30 mg/kg: 30 mg/kg ip. The class given is in vivo, Lewis rats. The procedure:
Rat Carrageenan Paw Edema
Representative compounds of the invention were tested in rat carrageenan-induced paw edema to determine their ability to inhibit this acute inflammatory response. Test compounds are administered intraperitoneally or orally to groups of seven Lewis rats (≈200 gm) 1 hr prior to carrageenan administration. The test compounds are dissolved in dimethyl sulfoxide for intraperitoneal administration and dissolved or suspended in Labrafil […] for oral administration. At 0 hour, 0.1 mL of 1% carrageenan dissolved in pyrogen free saline is injected subplantarly into the right hind paw to elicit the inflammatory response. The volume (in mL) of the right hind paw is measured by immersion of the paw to the level of the lateral malleolus in an aqueous plethysmometer immediately prior to the injection of carrageenan and then at 1, 2 and 4 hr after carrageenan injection. The paw edema is calculated by substracting the zero time reading from the readings taken after injection. The percent change of the edema volume from the vehicle treated control is calculated to determine the activity of the test compound. Statistical analysis of the mean paw edema values of the control versus the treated groups are performed using Student's t-test.

A further test concerns mouse skin. Conditions: cited from earlier work.

pIC50: −log10 of the molar value.

As a reminder, the pIC50 is the IC50 on a negative log10 scale, so that one unit is a factor of ten. Consider `CCCCCCCCc1ccc(N(CC(=O)O)CC(=O)O)cc1` [Example 39c, N-(carboxymethyl)-N-(4-octylphenyl)glycine], for which the pIC50 in test [1] was 7.18; on HSF-PLA2 it was 5.77.

`CCCCCCCCCCCCCCOc1cc(OCCCCCCCCCCCCCC)cc(N(CC(=O)O)CC(=O)O)c1` [Example 6e, N-(carboxymethyl)-N-[3,5-bis(tetradecyloxy)phenyl]glycine]: in test [2], the “% Inhibition of Myeloperoxidase Accumulation at 10 mg/kg po” value (“% Inhibition” for short) is on record as 145 ± 72%. Besides, the negative-log IC50 (pIC50) on HSF-PLA2 was 6.89. Further, the “% Inhib of PLA2 Rat Paw Edema 2 hr” value in the test on PLA2 Rat Paw Edema ((50 mg/kg)) worked out at 44%.

In the case of `CCCCCCCCCCNC(=O)c1cc(C(=O)NCCCCCCCCCC)cc(N(CC(=O)O)CC(=O)O)c1` [Example 16, N-(Carboxymethyl)-N-[3,5-bis[(decylamino)carbonyl]phenyl]glycine], the “% Inhibition” value in test [2] is listed as 212 ± 124%. The “% Inhib of Croton Oil Mouse Ear Edema (1 mg)” value (shortened to “% Inhib … (1 mg)”) in test [3] came out at 10%. Moreover, the pIC50 in test [1] is 7.30; on HSF-PLA2 it was 6.52. The inhibition in vivo at 30 mg/kg with PLA2 Rat Paw Edema was determined as 0%.

Take `CCCCCCCCCCOc1cc(OCCCCCCCCCC)cc(N(CC(=O)O)CC(=O)O)c1` [Example 6, N-(Carboxymethyl)-N-[3,5-bis(decyloxy)phenyl]glycine]: the “% Inhib … (1 mg)” value in test [3] is 13%. In addition, the pIC50 was 7.77 in test [1] and 6.62 on HSF-PLA2. Further, in the test with PLA2 Rat Paw Edema, the inhibition in vivo at 30 mg/kg turned out to be 45%. For the same compound, the “Change in Paw Volume (mL) Treated” value in test [4] (30 mg/kg ip) was -0.04 ± 0.24 mL.

For the compound `CCCCCCCCCCCCCCCCCCOc1cc(OCCCOc2ccccc2)cc(N(CC(=O)O)CC(=O)O)c1` [Example 58, N-(Carboxymethyl)-N-[3-(octadecyloxy)-5-(3-phenoxypropoxy)phenyl]glycine], the “% Inhib … (1 mg)” value in test [3] is 78%. For the same compound, the pIC50 on HSF-PLA2 is 7.22. In addition, the inhibition in vivo at 30 mg/kg in the test on PLA2 Rat Paw Edema was found to be 36%; in test [5] it was 29%. For the same compound, the “Change in Paw Volume (mL) Treated” value in test [4] (10 mg/kg ip) is 0.37 ± 0.14 mL.

With `CCCCCCCCOc1cc(OCCCCCCCC)cc(N(CC(=O)O)CC(=O)O)c1` [Example 6c, N-(carboxymethyl)-N-[3,5-bis(octyloxy)phenyl]glycine], the “% Inhib … (1 mg)” value in test [3] is listed as 0%. Besides, the pIC50 in test [1] is 7.66; on HSF-PLA2 it was 6.40. For the same compound, the inhibition in vivo at 30 mg/kg in the test with PLA2 Rat Paw Edema amounted to 7%.

As for `CCCCCCCCCCCCCCCCCCOc1cc(OCCCP(=O)(OCC)OCC)cc(N(CC(=O)O)CC(=O)O)c1` [Example 88, N-(Carboxymethyl)-N-[3-[3-(diethoxyphosphinyl)propoxy]-5-(octadecyloxy)phenyl]glycine], the “% Inhib … (1 mg)” value in test [3] is 43%. Besides, on HSF-PLA2, the pIC50 was 6.40. The inhibition in vivo at 30 mg/kg stood at 46% with PLA2 Rat Paw Edema and 57% in test [5]. In addition, the “Change in Paw Volume (mL) Treated” value in test [4] (30 mg/kg ip) was -0.90 ± 0.11 mL.

Consider `CCCCCCCCCCCCOc1cc(OCCCCCCCCCCCC)cc(N(CC(=O)O)CC(=O)O)c1` [Example 6d, N-(carboxymethyl)-N-[3,5-bis(dodecyloxy)phenyl]glycine], for which the “% Inhib … (1 mg)” value in test [3] turned out to be 21%. Besides, the pIC50 in test [1] was 6.77; at HSF-PLA2 it was 7.30.

On to `CCCCCCCCCCCCCCCCCCOc1cccc(N(CC(=O)O)CC(=O)O)c1` [Example 36, N -(Carboxymethyl)-N-[3-(octadecyloxy)phenyl]glycine], for which the “% Inhibition” value in test [2] worked out at 190 ± 76%. For the same compound, the “% Inhib … (1 mg)” value in test [3] was 21%. The pIC50 at HSF-PLA2 is 6.77.

In the case of `COc1ccc2c(c1)c(CC(=O)O)c(C)n2C(=O)c1ccc(Cl)cc1` [Indomethacin], in the test on mouse skin, the “TPA-mediated increase in epidermal PGE2 levels” value is reported as “prevented” and the “TPA-mediated induction of epidermal cell ornithine decarboxylase” value is listed as “prevented”.

The inhibition is the percentage by which the read-out fell short of the control. Regarding `CCCCCCCCCCCCCCCCCCOc1cc(OCCCOc2cccc([N+](=O)[O-])c2)cc(N(CC(=O)O)CC(=O)O)c1` [Example 58m, N-(carboxymethyl)-N-[3-[3-(3-nitrophenoxy)propoxy]-5-(octadecyloxy)phenyl]glycine], the “% Inhib … (1 mg)” value in test [3] is given as 60%. Also, the inhibition at 1 µM on HSF-PLA2 ((1 μM), read-out: Inhib of HSF-PLA2, % inhibition) was 79%. Besides, the inhibition in vivo at 30 mg/kg in the test with PLA2 Rat Paw Edema worked out at 52%. Moreover, the “Change in Paw Volume (mL) Treated” value in test [4] (10 mg/kg ip) came out at 0.40 ± 0.13 mL. The compound also had an inhibition in vivo at 10 mg/kg in test [5] (10 mg/kg ip) of 61%.
